PubChem BioAssay AID248 (DTP/NCI, 2004)
Values joined by “and” are separate entries in the source; they are usually repeats but may differ in a detail not shown here. Equal entries are not always repeated. Inconclusive results and toxic doses are left out. Rule as the data show it: active = T/C of 150% or more; inactive = T/C below 125%.

System: L1210 leukemia ip in BDF1 mice, survival T/C
Experiment: NCI In Vivo Anticancer Drug Screen. Data for tumor model L1210 Leukemia (intraperitoneal) in B6D2F1 (BDF1) mice
Conditions: endpoint: mean survival time, higher = longer survival
Procedure, shortened: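 Each compound was tested against a transplantable tumor grown in mice. The endpoint was survival, with treated animals benchmarked against vehicle controls as a simple ratio.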

[1] = dose: 100.0 mg/kg/injection, schedule: Q01DX001 (ip), vehicle: saline
[2] = dose: 100.0 mg/kg/injection, schedule: Q01DX009 (ip), vehicle: Klucel (hydroxypropylcellulose) (HPC)
[3] = dose: 200.0 mg/kg/injection, schedule: Q01DX009 (ip), vehicle: Klucel (hydroxypropylcellulose) (HPC)
[4] = dose: 400.0 mg/kg/injection, schedule: Q01DX009 (ip), vehicle: Klucel (hydroxypropylcellulose) (HPC)
[5] = dose: 50.0 mg/kg/injection, schedule: Q01DX001 (ip), vehicle: Klucel (hydroxypropylcellulose) (HPC)
[6] = dose: 100.0 mg/kg/injection, schedule: Q01DX001 (ip), vehicle: Klucel (hydroxypropylcellulose) (HPC)
[7] = dose: 100.0 mg/kg/injection, schedule: Q04DX003 (ip), vehicle: saline
[8] = dose: 200.0 mg/kg/injection, schedule: Q04DX003 (ip), vehicle: saline
[9] = dose: 100.0 mg/kg/injection, schedule: Q01DX009 (ip), vehicle: saline with Tween-80
[10] = dose: 200.0 mg/kg/injection, schedule: Q01DX009 (ip), vehicle: saline with Tween-80
[11] = dose: 400.0 mg/kg/injection, schedule: Q01DX009 (ip), vehicle: saline with Tween-80
[12] = dose: 25.0 mg/kg/injection, schedule: Q01DX009 (ip), vehicle: water
[13] = dose: 50.0 mg/kg/injection, schedule: Q01DX009 (ip), vehicle: water
[14] = dose: 100.0 mg/kg/injection, schedule: Q01DX009 (ip), vehicle: water
[15] = dose: 200.0 mg/kg/injection, schedule: Q01DX009 (ip), vehicle: water
[16] = dose: 50.0 mg/kg/injection, schedule: Q01DX009 (ip), vehicle: Klucel (hydroxypropylcellulose) (HPC)
[17] = dose: 200.0 mg/kg/injection, schedule: Q01DX001 (ip), vehicle: Klucel (hydroxypropylcellulose) (HPC)

Measured: T/C

CCCCCN(CCCCC)CC(O)C1c2ccccc2Cc2ccccc21 (stereo unspecified)
inactive: dose: 5.0 mg/kg/injection, schedule: Q01DX001 (ip), vehicle: saline 102 % of control | dose: 10.0 mg/kg/injection, schedule: Q01DX001 (ip), vehicle: saline 98 % of control | dose: 20.0 mg/kg/injection, schedule: Q01DX001 (ip), vehicle: saline 102 % of control | dose: 40.0 mg/kg/injection, schedule: Q01DX001 (ip), vehicle: saline 104 % of control | [1] 101 % of control

O=C(O)C1CCCCC1C(=O)NCc1ccco1 (stereo unspecified)
inactive: [2] 95 % of control | [3] 96 % of control | [4] 88 % of control

c1ncc2[nH]cnc2n1
inactive: dose: 27.33 mg/kg/injection, schedule: Q01DX Z (ip), vehicle: carboxymethylcellulose (CMC) 96 % of control | dose: 54.67 mg/kg/injection, schedule: Q01DX Z (ip), vehicle: carboxymethylcellulose (CMC) 96 % of control | dose: 109.35 mg/kg/injection, schedule: Q01DX Z (ip), vehicle: carboxymethylcellulose (CMC) 108 % of control | dose: 218.7 mg/kg/injection, schedule: Q01DX Z (ip), vehicle: carboxymethylcellulose (CMC) 98 % of control

CC1(C)NC(=S)NC1=S
inactive: dose: 100.0 mg/kg/injection, schedule: Q01DX009 (ip), vehicle: alcohol 103 % of control | dose: 100.0 mg/kg/injection, schedule: Q04DX002 (ip), vehicle: Klucel (hydroxypropylcellulose) (HPC) 89 % of control | dose: 200.0 mg/kg/injection, schedule: Q01DX009 (ip), vehicle: alcohol 101 % of control | dose: 200.0 mg/kg/injection, schedule: Q04DX002 (ip), vehicle: Klucel (hydroxypropylcellulose) (HPC) 89 % of control | dose: 400.0 mg/kg/injection, schedule: Q04DX002 (ip), vehicle: Klucel (hydroxypropylcellulose) (HPC) 96 % of control

Clc1cc(Cl)c2c(c1)Cc1cc(Cl)cc(Cl)c1-2
inactive: [2] 94 % of control | dose: 100.0 mg/kg/injection, schedule: Q04DX003 (ip), vehicle: Klucel (hydroxypropylcellulose) (HPC) 92 % of control | [3] 91 % of control | dose: 200.0 mg/kg/injection, schedule: Q04DX003 (ip), vehicle: Klucel (hydroxypropylcellulose) (HPC) 89 % of control | [4] 87 % of control | dose: 400.0 mg/kg/injection, schedule: Q04DX003 (ip), vehicle: Klucel (hydroxypropylcellulose) (HPC) 102 % of control

O=C(Nc1ccccc1CSc1nc2nc[nH]c(=O)c2[nH]1)c1ccc(S(=O)(=O)F)cc1
inactive: dose: 25.0 mg/kg/injection, schedule: Q01DX001 (ip), vehicle: Klucel (hydroxypropylcellulose) (HPC) 108 % of control | [5] 111 % of control | [6] 114 % of control

Brc1ccc(C[n+]2ccccc2)cc1
inactive: dose: 12.5 mg/kg/injection, schedule: Q04DX003 (ip), vehicle: saline 98 % of control | dose: 18.75 mg/kg/injection, schedule: Q01DX009 (ip), vehicle: saline 93 % of control | dose: 25.0 mg/kg/injection, schedule: Q04DX003 (ip), vehicle: saline 97 % of control | dose: 37.5 mg/kg/injection, schedule: Q01DX009 (ip), vehicle: saline 91 % of control | dose: 50.0 mg/kg/injection, schedule: Q04DX003 (ip), vehicle: saline 105 % of control | dose: 75.0 mg/kg/injection, schedule: Q04DX003 (ip), vehicle: saline 92 % of control

C(COCC1CO1)OCC1CO1 (stereo unspecified)
inactive: dose: 6.25 mg/kg/injection, schedule: Q01DX009 (ip), vehicle: saline 115 % of control | dose: 12.5 mg/kg/injection, schedule: Q01DX009 (ip), vehicle: saline 110 % of control | dose: 25.0 mg/kg/injection, schedule: Q01DX009 (ip), vehicle: saline 110 % of control and 118 % of control | dose: 100.0 mg/kg/injection, schedule: Q01DX009 (ip), vehicle: saline 120 % of control | [7] 122 % of control | dose: 200.0 mg/kg/injection, schedule: Q01DX Z (ip), vehicle: saline 121 % of control | [8] 91 % of control | dose: 300.0 mg/kg/injection, schedule: Q01DX Z (ip), vehicle: saline 114 % of control | dose: 450.0 mg/kg/injection, schedule: Q01DX Z (ip), vehicle: saline 122 % of control

O=C1NC(=O)C(O)(C2(O)C(=O)NC(=O)NC2=O)C(=O)N1
inactive: dose: 75.0 mg/kg/injection, schedule: Q01DX001 (ip), vehicle: carboxymethylcellulose (CMC) 101 % of control | [9] 106 % of control | dose: 150.0 mg/kg/injection, schedule: Q01DX001 (ip), vehicle: carboxymethylcellulose (CMC) 102 % of control | [10] 92 % of control | [11] 88 % of control

O=S(=O)(Cl)c1ccc(F)cc1
inactive: [9] 98 % of control | [10] 96 % of control | [11] 90 % of control

O=C(O)C1=CCCc2ccc(Br)cc21
inactive: dose: 50.0 mg/kg/injection, schedule: Q01DX009 (ip), vehicle: saline with Tween-80 93 % of control | [9] 95 % of control | [10] 98 % of control

CN1CC2([N+](=O)[O-])C=CCC([N+](=O)[O-])(C1)C2 (stereo unspecified)
inactive: [12] 98 % of control | [13] 102 % of control | [14] 104 % of control | [15] 103 % of control

O=C1c2cc([N+](=O)[O-])ccc2-c2c(F)cc(F)cc21
inactive: [7] 104 % of control | [8] 89 % of control | dose: 400.0 mg/kg/injection, schedule: Q04DX003 (ip), vehicle: saline 91 % of control

O=C(NC(=S)Nc1cccc(Cl)c1)c1ccccc1F
inactive: dose: 25.0 mg/kg/injection, schedule: Q01DX009 (ip), vehicle: Klucel (hydroxypropylcellulose) (HPC) 87 % of control | [16] 86 % of control | [2] 87 % of control

O=c1cc(O)c2ccccc2o1
inactive: [16] 104 % of control | [2] 93 % of control | [3] 90 % of control

COC1=NS(=O)(=O)C=C(c2ccccc2)O1
inactive: dose: 300.0 mg/kg/injection, schedule: Q04DX002 (ip), vehicle: Klucel (hydroxypropylcellulose) (HPC) 100 % of control

O=C1NC(c2cccs2)(c2cccs2)C(=O)N1Cl
inactive: dose: 6.25 mg/kg/injection, schedule: Q01DX009 (ip), vehicle: water 100 % of control | dose: 12.5 mg/kg/injection, schedule: Q01DX009 (ip), vehicle: water 97 % of control and 116 % of control | [12] 98 % of control and 113 % of control | dose: 25.0 mg/kg/injection, schedule: Q04DX003 (ip), vehicle: water 92 % of control | [13] 104 % of control and 87 % of control | dose: 50.0 mg/kg/injection, schedule: Q04DX003 (ip), vehicle: water 100 % of control | [14] 87 % of control | dose: 100.0 mg/kg/injection, schedule: Q04DX003 (ip), vehicle: water 97 % of control and 112 % of control | dose: 150.0 mg/kg/injection, schedule: Q01DX009 (ip), vehicle: water 116 % of control | [15] 93 % of control

Cc1cc(=O)[nH]c(O)c1C(=O)/C=C/c1ccccc1
inactive: [1] 96 % of control | dose: 200.0 mg/kg/injection, schedule: Q01DX001 (ip), vehicle: saline 102 % of control

O=C(c1ccccc1)C1(c2ccccc2)OC1(C(=O)c1ccccc1)c1ccccc1 (stereo unspecified)
inactive: [6] 94 % of control | [9] 92 % of control | [17] 94 % of control | [10] 101 % of control | dose: 400.0 mg/kg/injection, schedule: Q01DX001 (ip), vehicle: Klucel (hydroxypropylcellulose) (HPC) 87 % of control | [11] 95 % of control

CCN(CCNC(=O)NC(C)(C)C)c1ccccc1
inactive: [9] 115 % of control and 91 % of control | dose: 100.0 mg/kg/injection, schedule: Q04DX002 (ip), vehicle: saline with Tween-80 96 % of control and 100 % of control | dose: 100.0 mg/kg/injection, schedule: Q04DX003 (ip), vehicle: saline with Tween-80 97 % of control | [10] 97 % of control and 91 % of control | dose: 200.0 mg/kg/injection, schedule: Q04DX002 (ip), vehicle: saline with Tween-80 96 % of control and 97 % of control | dose: 200.0 mg/kg/injection, schedule: Q04DX003 (ip), vehicle: saline with Tween-80 106 % of control | [11] 97 % of control and 88 % of control | dose: 400.0 mg/kg/injection, schedule: Q04DX002 (ip), vehicle: saline with Tween-80 94 % of control and 89 % of control | dose: 400.0 mg/kg/injection, schedule: Q04DX003 (ip), vehicle: saline with Tween-80 92 % of control

COc1ccccc1-n1c(O)c(N=Nc2ccc(Br)cc2)c(=O)n(-c2ccc(Br)cc2)c1=S
inactive: [5] 93 % of control | [6] 109 % of control | [17] 102 % of control
